{"source": "paper doi:10.1101/322404v1", "about": "“Discovery of a novel stereospecific β-hydroxyacyl-CoA lyase/thioesterase shared by three metabolic pathways in Mycobacterium tuberculosis” (biorxiv, 2018)", "key": {"[1]": {"target": "T1, Rv2498c (Mycobacterium tuberculosis, UniProt P9WPE1)", "T1 construct": "gene citE", "T1 sequence (P9WPE1 whole entry)": "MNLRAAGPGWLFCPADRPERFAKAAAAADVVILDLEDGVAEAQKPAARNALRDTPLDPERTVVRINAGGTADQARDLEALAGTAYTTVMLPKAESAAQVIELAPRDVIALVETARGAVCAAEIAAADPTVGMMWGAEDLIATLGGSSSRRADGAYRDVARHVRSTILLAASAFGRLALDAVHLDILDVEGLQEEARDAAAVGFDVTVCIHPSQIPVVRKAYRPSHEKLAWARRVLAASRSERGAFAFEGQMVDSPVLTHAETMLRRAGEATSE"}, "[2]": {"target": "T1, Rv2498c", "remark": "listed apart in the source"}, "[3]": {"target": "T1, Rv2498c", "remark": "listed apart in the source"}, "[4]": {"target": "T1, Rv2498c", "remark": "listed apart in the source"}}}
{"smiles": "CC(C)(COP(=O)(O)OP(=O)(O)OC[C@H]1O[C@@H](n2cnc3c(N)ncnc32)[C@H](O)[C@@H]1OP(=O)(O)O)[C@@H](O)C(=O)NCCC(=O)NCCS", "note": "[CoA]", "values": [{"measurement": "X-ray crystal structure, 1.72 A (6ARB) and 2.04 A (6AS5)", "setting": "[1]", "value": "A magnesium ion, coordinated pyruvate, and CoA molecule were observed in the active sites"}]}
{"smiles": "CC(C)(COP(=O)(O)OP(=O)(O)OC[C@H]1O[C@@H](n2cnc3c(N)ncnc32)[C@H](O)[C@@H]1OP(=O)(O)O)[C@@H](O)C(=O)NCCC(=O)NCCSC(=O)C[C@](C)(O)C(=O)O", "note": "[(S)-citramalyl-CoA]", "values": [{"measurement": "X-ray crystal structure, 1.83 A", "setting": "[2]", "value": "two citramalyl-CoA molecules"}]}
{"smiles": "CC(C)(COP(=O)(O)OP(=O)(O)OC[C@H]1O[C@@H](n2cnc3c(N)ncnc32)[C@H](O)[C@@H]1OP(=O)(O)O)[C@@H](O)C(=O)NCCC(=O)NCCSC(=O)C[C@](C)(O)CC(=O)O", "note": "[(R)-HMG-CoA]", "values": [{"measurement": "HPLC lyase assay and 1H NMR of products", "setting": "[3]", "value": "we found that Rv2498c is a lyase specific for the (R)-HMG-CoA"}]}
{"smiles": "CC(C)(COP(=O)(O)OP(=O)(O)OC[C@H]1O[C@@H](n2cnc3c(N)ncnc32)[C@H](O)[C@@H]1OP(=O)(O)O)[C@@H](O)C(=O)NCCC(=O)NCCSC(=O)C[C@H](O)C(=O)O", "note": "[(S)-malyl-CoA]", "values": [{"measurement": "HPLC thioesterase assay", "setting": "[4]", "value": "Rv2498c was found to subsequently catalyse the hydrolysis of the thioester bond of (S)-malyl-CoA"}]}
